Here are results for one compound from patent US20220265657A1, “ADMINISTRATION METHOD AND DOSAGE REGIMEN FOR TREATMENT OF NEURODEGENERATIVE DISEASES USING TRAMETINIB AND MARKERS” (GENUV INC., priority 2019, published 2022).

Assay [1] deals with 5XFAD mice. Kind of assay: Western blot of brain cortex lysates. It is filed as in vivo. As to the method:
(§1) Trametinib treatment: Trametinib (Medchemexpress, Monmouth Junction, N.J.) was micronized and suspended in the vehicle containing 5% mannitol, 1.5% hydroxypropyl methylcellulose and 0.2% sodium lauryl sulfate. For pharmacokinetic analysis, 0.05, 0.2 and 0.8 mg/kg of trametinib were orally administered to 7-week-old normal mice (ICR, n=5 per group) as a single administration. […] For studies on the change in pERK expression in normal mice and whole cell RNA sequencing study, 0.1 mg/kg/day of trametinib (in 4% DMSO+96% corn oil) was orally administered to 6-week old C57BL/6 mice (n=3 per group). Mice were sacrificed after 1, 2, 3, or 4 weeks of administration. 5XFAD mice (male, n=7˜10 per group) were divided into vehicle and trametinib treated groups. 12-month old mice received vehicle or 0.1 mg/kg of trametinib for 1 month by oral gavage once a day (These mice are referred to as “13-month old 5XFAD mice” in the Examples). […] Blood was obtained after completion of treatment.
Lysates were centrifuged at 13,000 rpm for 20 min at 4° C., and the protein content in the supernatant was determined using the Bradford assay (Bio-rad, Hercules, Calif.). For subcellular fractionation, cells were lysed with lysis buffer (250 mM Sucrose, 20 mM HEPES, pH 7.4, 10 mM KCl, 1.5 mM MgCl2, 1 mM EGTA, 1 mM EDTA, 1 mM DTT) containing protease inhibitor for 30 min on ice, followed by centrifugation at 720 g for 5 min at 4° C. Supernatants were centrifuged at 15,000 rpm for 10 min at 4° C., and the resulting supernatant was used as the cytosol fraction. After centrifugation at 720 g for 5 min, pellets were washed with lysis buffer and dissolved in nuclear lysis buffer (50 mM Tris HCl, pH 8.0, 150 mM NaCl, 1% NP40, 0.5% sodium deoxycholate, 0.1% SDS, 10% glycerol) as the nuclear fraction. Protein from each sample was subjected to 8%˜15% SDS-PAGE, and the resolved proteins were transferred to nitrocellulose or polyvinylidene fluoride membrane. […] The detected signals were quantified using a LAS-4000 system (Fuji Film, Tokyo, Japan).
A general note: A western blot detects proteins with antibodies after separation by electrophoresis.

The subject of assay [2] is 5XFAD mice. Kind of assay: Immunofluorescence staining of Map2, Tau and swollen axons in cortex layer V. In kind it is in vivo. As to the method:
as §1
Brains were dissected and analyzed by immunohistochemistry. For paraffin sections, brain hemispheres were embedded sagittally in paraffin and prepared into sections of […] slices. […] The sections were counterstained with DAPI. […] NeuN-positive and active caspase 3-positive cells from cortex layer V were counted using Icy micromanager program (Institut Pasteur, Paris, France).

On to `CC(=O)Nc1cccc(-n2c(=O)n(C3CC3)c(=O)c3c(Nc4ccc(I)cc4F)n(C)c(=O)c(C)c32)c1` [trametinib], for which, in assay [1] (8-month old 5XFAD mice brain), the “autophagosome marker LC3-II level” value was “further increased” and the “level of mature cathepsin B” value is “seen to increase”. Further, the “expression of presynaptic marker synaptophysin and postsynaptic marker PSD-95” value in assay [1] (brain cortex lysates of 5XFAD mice) is “Increased expression”. Moreover, in assay [2] (5XFAD mice, compared to vehicle-administered group), the bulb-like swollen axons entry was “significantly reduced”. Besides, the “dendritic and axonal lengths (Map2, Tau)” value in assay [2] (cortex of 8-month-old and 13-month-old 5XFAD mice) is “recovery of dendritic and axonal lengths”.
